The nature of data set [1]: Pharmacokinetic assay in ICR mice (i.v. and p.o.). The conditions noted are these: mouse, plasma, male ICR mice; for half-life: read-out: T½ (converted); for bioavailability: po 10 mg/kg vs iv 1 mg/kg. The format is in vivo. As for the experimental part: ICR mice were purchased from Beijing Vital River Laboratory Animal Technology Co., Ltd.
3.2 Experimental procedure • (1) Healthy male ICR mice (18-22 g) were prepared, with 18 mice for each compound. The mice were divided into 2 groups (an i.v. group and a p.o. group), with 9 mice per group. 3 mice were picked for blood collection at each time point. • (2) After the animals were fasted overnight (with free access to water), the compound of the present invention dissolved (or suspended) in a solvent of 5% DMSO and 95% 30% HP-β-CD (v:v) was administered via the tail vein (i.v., 1 mg/kg) or intragastrically (p.o., 10 mg/kg), respectively. • (3) For the i.v. group, 0.1 mL blood was collected from the submandibular vein 5 min, 15 min, 0.5 h, 1 h, 2 h, 4 h, 8 h, 12 h, and 24 h after administration, respectively, anticoagulated with EDTA-K2, and centrifuged at 4° C. for 5 min to obtain plasma, which was stored at -20° C. until testing. (4) For the p.o. group, 0.1 mL blood was collected from the submandibular vein before administration and 15 min, 0.5 h, 1 h, 2 h, 4 h, 6 h, 8 h, 12 h, and 24 h after administration, and treated in the same manner as that for the intravenous group. • (5) The concentration of the compound of the present invention in plasma was measured by LC/MS/MS. • (6) Calculation and fitting were performed with Analyst 1.6 from AB Company, and the results are shown in Table 3.

The target of a further data set is T1, DNA-PK kinase (Homo sapiens, UniProt P78527).
T1 construct: purchased Promega V4107
Briefly: Inhibition assay of DNA-PK kinase (Promega kit, ADP-Glo chemiluminescence). The conditions noted are these: 50 µM ATP, 37° C., 60 min; read-out: IC50 (nM), inhibitory activity on DNA-PK kinase. It counts as biochemical. As for the experimental part: The inhibitory activity of the compounds on DNA-PK kinase was measured by using a DNA-PK kinase assay kit (purchased from Promega, Cat.#: V4107, Lot: 0000366495). The results were quantified by chemiluminescence, and the detailed experimental protocol was as follows: • i. An ADP-fluorescence standard curve over a range of concentrations was plotted according to the kit instructions; • ii. […] The mixtures were mixed well, centrifuged (1000 rpm, 30 s), and incubated at 37° C. for 60 min; • iv. 5 µL of ADP-Glo™ Reagent was added to stop the reaction, which was then mixed well, centrifuged (1000 rpm, 30 s), and incubated at room temperature for 40 min; • v. 10 µL Kinase Detection Reagent was added, and the mixture was mixed well by shaking, centrifuged (1000 rpm, 30 s), and incubated at room temperature for 30 min; • vi. The […] was measured by using a microplate reader (Thermo fisher, Varioskan LUX).
Background: ADP-Glo first removes unused ATP, then detects ADP through luciferase.

Where two headings read alike, the source gives them in different places.

In general, AUC refers to the area under the concentration-time curve, a measure of exposure. A high value points to more exposure. As a reminder, the Cmax is the highest concentration seen after dosing. One may read the IC50 as the concentration needed to halve the response being measured.

Consider `[2H]C([2H])([2H])n1c(=O)n(C2CCOCC2)c2nc(Nc3ccc(C#N)cc3C)ncc21` (single isomer, unassigned) [Compound 6, 3-Methyl-4-((7-(methyl-d3)-8-oxo-9-(tetrahydro-2H-pyran-4-yl)-8,9-dihydro-7H-purin-2-yl)amino)benzonitrile], for which, in data set [1] (iv, 1 mg/kg), the AUC is 82.4 ng·h/mL and the half-life was 17.9 min. Moreover, the bioavailability in data set [1] came to 179%. For the same compound, in data set [1] (po, 10 mg/kg), the exposure (AUC) came out at 1480 ng·h/mL, the highest level (Cmax) was 1220 ng/mL and the half-life is 57.8 min.

On to `Cc1cc(S(C)(=O)=O)ccc1Nc1ncc2c(n1)n(C1CCOCC1)c(=O)n2C` [Compound 1, 7-Methyl-2-((2-methyl-4-(methylsulfonyl)phenyl)amino)-9-(tetrahydro-2H-pyran-4-yl)-7,9-dihydro-8H-purin-8-one], for which the IC50 on DNA-PK kinase is 10.1 nM.

On to `Cc1cc(C(F)(F)F)ccc1Nc1ncc2c(n1)n(C1CCOCC1)c(=O)n2C` [Compound 3, 7-Methyl-2-((2-methyl-4-(trifluoromethyl)phenyl)amino)-9-(tetrahydro-2H-pyran-4-yl)-7,9-dihydro-8H-purin-8-one], for which the IC50 on DNA-PK kinase stood at 18.6 nM.

As to `Cc1cc(Cl)ccc1Nc1ncc2c(n1)n(C1CCOCC1)c(=O)n2C` [Compound 4, 2-((4-chloro-2-methylphenyl)amino)-7-methyl-9-(tetrahydro-2H-pyran-4-yl)-7,9-dihydro-8H-purin-8-one], the IC50 at DNA-PK kinase turned out to be 8.3 nM.

As to `Cc1cc(F)ccc1Nc1ncc2c(n1)n(C1CCOCC1)c(=O)n2C` [Compound 7, 2-((4-fluoro-2-methylphenyl)amino)-7-methyl-9-(tetrahydro-2H-pyran-4-yl)-7,9-dihydro-8H-purin-8-one], on DNA-PK kinase, the IC50 worked out at 5.47 nM.

In the case of `Cc1ccc(C#N)cc1Nc1ncc2c(n1)n(C1CCOCC1)c(=O)n2C` [Compound 15, 4-Methyl-3-((7-methyl-8-oxo-9-(tetrahydro-2H-pyran-4-yl)-8,9-dihydro-7H-purin-2-yl)amino)benzonitrile], the IC50 on DNA-PK kinase was determined as 5.28 nM.

Regarding `Cc1cc(C#N)ncc1Nc1ncc2c(n1)n(C1CCOCC1)c(=O)n2C` [Compound 17, 4-Methyl-5-((7-methyl-8-oxo-9-(tetrahydro-2H-pyran-4-yl)-8,9-dihydro-7H-purin-2-yl)amino)picolinonitrile], the IC50 on DNA-PK kinase is 28.7 nM.

As for `COc1ccc(Nc2ncc3c(n2)n(C2CCOCC2)c(=O)n3C)c(C)n1` [Compound 21], the IC50 at DNA-PK kinase is 53 nM.

As to `COC(=O)c1cc(Nc2ncc3c(n2)n(C2CCOCC2)c(=O)n3C)c(C)s1` [Compound 22], the IC50 at DNA-PK kinase was determined as 1.36 nM.

On to `Cc1cc(C(=O)NC(C)C)ccc1Nc1ncc2c(n1)n(C1CCOCC1)c(=O)n2C` [Compound 30, N-Isopropyl-3-methyl-4-((7-methyl-8-oxo-9-(tetrahydro-2H-pyran-4-yl)-8,9-dihydro-7H-purin-2-yl)amino)benzamide], for which the IC50 at DNA-PK kinase stood at 66.6 nM.

For the compound `Cc1cc(C(=O)NC2CC2)ccc1Nc1ncc2c(n1)n(C1CCOCC1)c(=O)n2C` [Compound 31, N-Cyclopropyl-3-methyl-4-((7-methyl-8-oxo-9-(tetrahydro-2H-pyran-4-yl)-8,9-dihydro-7H-purin-2-yl)amino)benzamide], at DNA-PK kinase, the IC50 was 31 nM.

For `CNC(=O)c1cc(C)c(Nc2ncc3c(n2)n(C2CCOCC2)c(=O)n3C)cc1F` [Compound 36, 2-Fluoro-N,5-dimethyl-4-((7-methyl-8-oxo-9-(tetrahydro-2H-pyran-4-yl)-8,9-dihydro-7H-purin-2-yl)amino)benzamide], on DNA-PK kinase, the IC50 worked out at 17.9 nM.

On to `[2H]C([2H])([2H])NC(=O)c1cc(C)c(Nc2ncc3c(n2)n(C2CCOCC2)c(=O)n3C)cc1F` [Compound 37, 2-Fluoro-5-methyl-N-(methyl-d3)-4-((7-methyl-8-oxo-9-(tetrahydro-2H-pyran-4-yl)-8,9-dihydro-7H-purin-2-yl)amino)benzamide], for which, at DNA-PK kinase, the IC50 is 11.9 nM.

As for `Cc1sc(C(=O)O)cc1Nc1ncc2c(n1)n(C1CCOCC1)c(=O)n2C` [Compound 41], in data set [1] (iv, 1 mg/kg), the exposure (AUC) worked out at 357 ng·h/mL and the half-life was 33 min. The bioavailability in data set [1] worked out at 42.3%. Further, in data set [1] (po, 10 mg/kg), the AUC came to 1500 ng·h/mL, the Cmax came out at 2710 ng/mL and the half-life was 293 min.

The values are drawn from patent US20230165867A1 (CHENGDU BAIYU PHARMACEUTICAL CO., LTD., priority 2020, published 2023).
